Laboratory results published in US20250179499A1, “USE OF CDK16 AS TARGET IN PREPARATION OF MEDICINE FOR TREATING TRIPLE-NEGATIVE BREAST CANCER” (SHENZHEN TYERCAN BIO-PHARM CO., LTD., priority 2022, published 2025).

How the values were obtained:
[1] = test system: MDA-MB-231 xenografts; assay: Growth of MDA-MB-231 xenografts transplanted in situ into mammary gland fat pads; assay type: in vivo, mice; settings: Rebastinib 80 mg/kg by gavage, 13 days, vs solvent control; FIG. 5A-5D
Source text: Lentivirus-infected breast tumor cells were resuspended with 50% of FBS (diluted with PBS), added with Matrigel at a volume ratio of 1:1, then added with 0.04% of trypan blue, mixed well, and placed on ice until inoculation into mice. After the mouse was anesthetized, it was placed on an experimental table with its abdomen facing upwards, and a “Y”-shaped opening was cut in its abdominal epidermis along a midline and the direction of the lower limbs on both sides with scissors (without cutting the peritoneum). The opening was peeled off to both sides with cotton swabs and tweezers to expose the fourth pair of mammary gland fat pads, and the epidermis was fixed with needles. 10-20 μL of a cell suspension was drawn up with a syringe and injected into the mammary gland fat pads. Finally, the skin on both sides was closed and sutured with surgical staples. The surgical staples could be removed after the wound healed. Since the surgery, the occurrence of tumors in the mouse was observed and recorded every day. After about one week, the length and width of the tumor were measured with a vernier caliper and recorded, and the change in the weight of the mouse was monitored. The tumor volume was calculated by the following formula: Volume (mm^3)=length×width×width×0.52.
(§1) The tumor cell line was transplanted in situ as that in Example 1. When the tumor size reached […], the mice were divided into a control group (solvent) and a group administrated with Rebastinib (80 mg/kg), with 3 mice in each group. The mice were administrated by gavage continuously (administrated with MDA-MB-231 xenografts for 13 days and administrated with PDX for 11 days), during which the mice were weighed every day, and the tumor size was measured every three days. After completion of the administration, the mice were sacrificed and the tumors were weighed.

[2] = test system: TNBC-type PDX tumors; assay: Growth of TNBC-type PDX tumors; assay type: in vivo, NSG mice; settings: Rebastinib 80 mg/kg by gavage, 11 days, vs solvent control; FIG. 5H-5K
Description: Primary tumor cells from the patient infected with the lentivirus were in-situ injected into the fourth pair of mammary gland fat pads of the NSG mice according to the method described in 3, and the occurrence of tumors was observed and recorded.
as §1

[3] = test system: TNBC-type PDOs; assay: Growth of TNBC PDO (patient-derived organoids in Matrigel); assay type: cell-based, human; settings: 1 μM and 5 μM
Description: The primary tumor cells from the patient infected with the lentivirus were resuspended with pre-cooled Matrigel to a concentration of 2× 10^4 cells/50 μL Matrigel. The Matrigel was added dropwise into a 24-well culture plate and allowed to stand at 37° C. for 15-20 min. After confluence, the cells were added with a breast cancer tumor organoid culture medium for culture, the culture medium was replaced by a fresh culture medium every three days, and the number and size of organoid growth were counted.
Similar to the PDO model establishment operation in Example 1, the primary tumor cells derived from TNBC patients were resuspended with pre-cooled Matrigel to a concentration of 2×10^4 cells/50 μL Matrigel. The Matrigel was added dropwise into a 24-well culture plate and allowed to stand at 37° C. for 15-20 min. After confluence, the cells were added with a breast cancer tumor organoid culture medium for culture, and the culture medium was replaced by a fresh culture medium every three days. The PDOs were divided into 6 groups, including an untreated group, a solvent control group, groups administrated with low and high doses of Abemaciclib (with doses of 1 μM and 5 μM, respectively), and groups administrated with low and high doses of Rebastinib (with doses of 1 μM and 5 μM, respectively). After three days of culture, the PDOs were started to be treated by addition of a drug according to groups. The size and number of organoids were counted after one week.

Structure (SMILES): CNC(=O)c1cc(Oc2ccc(NC(=O)Nc3cc(C(C)(C)C)nn3-c3ccc4ncccc4c3)c(F)c2)ccn1 [Rebastinib]
- sizes of MDA-MB-231 tumors [1]: significantly inhibits
- volumes of MDA-MB-231 tumors [1]: significantly inhibits
- weights of MDA-MB-231 tumors [1]: significantly inhibits
- sizes of TNBC-type PDX tumors [2]: significantly inhibits
- volumes of TNBC-type PDX tumors [2]: significantly inhibits
- weights of TNBC-type PDX tumors [2]: significantly inhibits
- sizes of TNBC-type PDOs ([3]; counted after one week, FIG. 5E): significantly inhibits
- number of TNBC-type PDOs ([3]; counted after one week, FIG. 5F): significantly reduces
- apoptosis of TNBC-type PDOs ([3]; FIG. 5G): promotes
- proliferation of TNBC-type PDOs ([3]; FIG. 5G): significantly inhibits
